According to patent US7655392B2, “Quenching methods for red blood cell inactivation process” (priority 2004, dated 2010):

Tested on: red blood cells
Experiment: Gel card agglutination with rabbit anti-acridine sera
Format: cell-based
Procedure: The reduction in modification of red blood cells in the methods of the present invention can be evaluated by several assays. In one assay, rabbit polyclonal sera that is reactive with acridine is produced by injecting New Zealand White rabbits with an acridine compound conjugated to KLH.
This is conjugated to KLH by adding 10 μL of the compound (10 mM in de-ionized water) to 990 μL of a buffered solution of KLH (10 mg/mL in 50 mM Phosphate, 150 mM NaCl, PBS pH=7.2 with proprietary stabilizer, Pierce Cat # 77600) and incubating at room temperature for over 20 hours. Following this incubaton, the conjugated KLH is isolated from the unreacted S-197 and S-197 by-products by passing through a desalting column (e.g. D-salt columns, Pierce) and eluting in PBS buffer. The colored fractions of the solutions are then combined and the KLH conjugates are characterized by the ratio of absorbance at 210 and 410 nm. The acridine-KLH conjugate solutions are mixed with Complete Freund's Adjuvant for intramuscular injection into the rabbits at multiple sites to immunize the rabbits. […] The resulting solution can be assayed for agglutination by passing through a Buffer Gel Card (Micro Typing Systems, Pompano Beach, Fla.). The gel cards are designed to allow non-agglutinated red blood cells to pass through, while cells agglutinated by reaction with the rabbit sera and cross reacting with the anti-rabbit antibody will remain at the top of the gel. The cards are scored as 0, 1+, 2+, 3+, or 4+, where 0 indicates all cells are intact and are at the bottom of the gel, while 4+ indicates complete agglutination, with all cells at the top of the gel.
In these, the appropriate amount of 600 mM stock was added, mixed with an appropriate volume of 8% dextrose to provide the same volume addition to each RBC sample where in one study, with varied glutathione concentrations, the pH was measured after adding glutathione and after adding PIC-1. […] Similar samples were also assessed for the inactivation of S. epidermidis. […] For gel card analysis, after incubation, the RBC were washed in BBS and were diluted in BBS to a final hematocrit of 4%. A 25 μL aliquot of each was mixed with 15 μL of rabbit polyclonal anti-acridine sera diluted either 1:4 or 1:100 in BBS and the mixture was incubated at 37° C. for 30 minutes. The cells were subsequently washed with 1.5 mL BBS. […]
Heterophile antibodies are naturally occurring antibodies that recognize RBC from another species in a non-specific fashion. […] All samples were mixed with quencher first, then PIC-1 at 0.2 mM.
The standard condition was included, i.e. 0.2 mM PIC-1 and 2 mM acidic glutathione added together.

Measured: Gel card score

O=C(CCNc1c2ccccc2nc2ccccc12)OCCN(CCCl)CCCl [PIC-1]
1+: another study, rabbit sera 1:4: 20 mM neutralized (2 eq.) glutathione, 0.2 mM PIC-1
0: Table 13: 5 mM GSH 2eq/15 mM Cys 1eq, 0.2 mM PIC-1, blood sample 1, sera 1:100 | Table 13: 5 mM GSH 2eq/15 mM Cys 1eq, 0.2 mM PIC-1, blood sample 2, sera 1:100 | Table 13: 5 mM GSH 2eq/15 mM Cys 2eq, 0.2 mM PIC-1, blood sample 1, sera 1:100 | Table 13: 5 mM GSH 2eq/15 mM Cys 2eq, 0.2 mM PIC-1, blood sample 2, sera 1:100 | Table 13: 10 mM GSH 2eq/10 mM Cys 1eq, 0.2 mM PIC-1, blood sample 1, sera 1:100 | Table 13: 10 mM GSH 2eq/10 mM Cys 1eq, 0.2 mM PIC-1, blood sample 2, sera 1:100 | Table 13: 10 mM GSH 2eq/10 mM Cys 2eq, 0.2 mM PIC-1, blood sample 1, sera 1:100 | Table 13: 10 mM GSH 2eq/10 mM Cys 2eq, 0.2 mM PIC-1, blood sample 2, sera 1:100 | Table 13: 15 mM GSH 2eq/5 mM Cys 1eq, 0.2 mM PIC-1, blood sample 1, sera 1:100 | Table 13: 15 mM GSH 2eq/5 mM Cys 1eq, 0.2 mM PIC-1, blood sample 2, sera 1:100 | Table 13: 15 mM GSH 2eq/5 mM Cys 2eq, 0.2 mM PIC-1, blood sample 1, sera 1:100 | Table 13: 15 mM GSH 2eq/5 mM Cys 2eq, 0.2 mM PIC-1, blood sample 2, sera 1:100 | Table 13: 20 mM Cys 1eq, 0.2 mM PIC-1, blood sample 1, sera 1:4 | Table 13: 20 mM Cys 1eq, 0.2 mM PIC-1, blood sample 1, sera 1:100 | Table 13: 20 mM Cys 1eq, 0.2 mM PIC-1, blood sample 2, sera 1:100 | Table 13: 20 mM Cys 2eq, 0.2 mM PIC-1, blood sample 1, sera 1:4 | Table 13: 20 mM Cys 2eq, 0.2 mM PIC-1, blood sample 1, sera 1:100 | Table 13: 20 mM Cys 2eq, 0.2 mM PIC-1, blood sample 2, sera 1:100 | Table 13: 20 mM GSH 2eq, 0.2 mM PIC-1, blood sample 1, sera 1:100 | Table 13: 20 mM GSH 2eq, 0.2 mM PIC-1, blood sample 2, sera 1:100 | Table 14: 5 mM CysGly, 0.2 mM PIC-1, 1:100 dilution of serum | Table 14: 10 mM CysGly, 0.2 mM PIC-1, 1:100 dilution of serum | another study, rabbit sera 1:100: 10, 15, 20 mM neutralized glutathione, all samples
4+: another study, rabbit sera 1:4: 10 mM neutralized (2 eq.) glutathione, 0.2 mM PIC-1 | another study, rabbit sera 1:4: standard condition
2: Table 13: 10 mM GSH 2eq/10 mM Cys 2eq, 0.2 mM PIC-1, blood sample 1, sera 1:4 | Table 13: 10 mM GSH 2eq/10 mM Cys 2eq, 0.2 mM PIC-1, blood sample 2, sera 1:4 | Table 14: 5 mM CysGly 1 eq. base, 0.2 mM PIC-1, 1:100 dilution of serum
3: Table 13: 5 mM GSH 2eq/15 mM Cys 1eq, 0.2 mM PIC-1, blood sample 2, sera 1:4 | Table 13: 10 mM GSH 2eq/10 mM Cys 1eq, 0.2 mM PIC-1, blood sample 1, sera 1:4 | Table 13: 10 mM GSH 2eq/10 mM Cys 1eq, 0.2 mM PIC-1, blood sample 2, sera 1:4 | Table 13: 15 mM GSH 2eq/5 mM Cys 1eq, 0.2 mM PIC-1, blood sample 2, sera 1:4 | Table 13: 15 mM GSH 2eq/5 mM Cys 2eq, 0.2 mM PIC-1, blood sample 2, sera 1:4 | Table 13: 20 mM Cys 1eq, 0.2 mM PIC-1, blood sample 2, sera 1:4 | Table 14: […] CysGly, 0.2 mM PIC-1, 1:100 dilution of serum
3+: another study, rabbit sera 1:4: 15 mM neutralized (2 eq.) glutathione, 0.2 mM PIC-1
4: Table 13: 15 mM GSH 2eq/5 mM Cys 1eq, 0.2 mM PIC-1, blood sample 1, sera 1:4 | Table 13: 15 mM GSH 2eq/5 mM Cys 2eq, 0.2 mM PIC-1, blood sample 1, sera 1:4 | Table 13: 20 mM GSH 2eq, 0.2 mM PIC-1, blood sample 1, sera 1:4 | Table 13: 20 mM GSH 2eq, 0.2 mM PIC-1, blood sample 2, sera 1:4 | Table 14: 5 mM CysGly 1 eq. base, 0.2 mM PIC-1, 1:4 dilution of serum | Table 14: 5 mM CysGly, 0.2 mM PIC-1, 1:4 dilution of serum | Table 14: 10 mM CysGly, 0.2 mM PIC-1, 1:4 dilution of serum | Table 14: […] CysGly 1 eq. base, 0.2 mM PIC-1, 1:4 dilution of serum | Table 14: […] CysGly 1 eq. base, 0.2 mM PIC-1, 1:100 dilution of serum | Table 14: […] CysGly, 0.2 mM PIC-1, 1:4 dilution of serum
1: Table 13: 5 mM GSH 2eq/15 mM Cys 2eq, 0.2 mM PIC-1, blood sample 1, sera 1:4 | Table 13: 5 mM GSH 2eq/15 mM Cys 2eq, 0.2 mM PIC-1, blood sample 2, sera 1:4 | Table 13: 20 mM Cys 2eq, 0.2 mM PIC-1, blood sample 2, sera 1:4
